Publication PMC2765968, “A novel inhibitor of Chlamydophila pneumoniae protein kinase D (PknD) inhibits phosphorylation of CdsD and suppresses bacterial replication” (BMC Microbiology, 2009)

Molecular target: T1, CdsN (GST-CdsN) (Chlamydia pneumoniae, UniProt A0ABN3YQA5)
T1 construct: gene yopN; GST tag kept, eluted from glutathione-agarose
T1 sequence (A0ABN3YQA5 1-442): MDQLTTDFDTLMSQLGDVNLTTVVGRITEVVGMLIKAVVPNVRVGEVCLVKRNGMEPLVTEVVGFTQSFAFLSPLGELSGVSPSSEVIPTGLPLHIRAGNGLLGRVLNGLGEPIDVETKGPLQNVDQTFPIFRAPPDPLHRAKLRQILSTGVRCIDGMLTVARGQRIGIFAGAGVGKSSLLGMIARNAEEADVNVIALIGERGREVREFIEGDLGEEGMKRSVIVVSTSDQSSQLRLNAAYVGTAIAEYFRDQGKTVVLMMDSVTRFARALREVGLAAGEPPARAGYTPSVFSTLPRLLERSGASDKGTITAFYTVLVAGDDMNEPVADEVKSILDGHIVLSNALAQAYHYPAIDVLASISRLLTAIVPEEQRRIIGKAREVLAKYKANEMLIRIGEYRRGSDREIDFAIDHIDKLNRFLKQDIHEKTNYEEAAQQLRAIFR
Assay: ATP hydrolysis, malachite green phosphate assay
Format: biochemical
Details: […] ATP, […] Tris-HCl pH […] MgCl2, […] KCl, […] °C, […] min

## Nc1ncnc2c1ncn2[C@@H]1O[C@H](COP(=O)(O)OP(=O)(O)OP(=O)(O)O)[C@@H](O)[C@H]1O [ATP]
  ATP hydrolysis, malachite green phosphate assay: ATP hydrolysis by GST-CdsN purified from glutathione-agarose beads was measured using a malachite green assay
